Measurements taken from patent EP1096933B1, “USE OF AN INHIBITOR OF CYTOCHROME P450 OPTIONALLY COMBINED WITH AN ANTIFUNGAL AGENT FOR TREATING MYCOSES” (priority 1998, dated 2000).
Like-named read-outs stand apart in the source and are kept apart here.

Tested on: Trichophyton violaceum
Test: growth of strains streaked on Sabouraud agar containing the products
Type: cell-based
Conditions: Tric.Violaceum; for activity at 10 µg/mL: read-out: % DE CROISSANCE; for inhibition at 2 µg/mL / inhibition at 10 µg/mL / inhibition at 20 µg/mL / inhibition at 50 µg/mL: read-out: inhibition de la croissance
Protocol: Ces molécules ont été incorporées dans un milieu gélosé dit de Sabouraud (peptone 10g/l, glucose 10 g/l, gomme agar 15 g/l).
Des souches de diverses espèces de champignons ont été ensemencées par stries par la méthode de Stires.
Le pourcentage de croissance a été mesuré au cours du temps, pour des périodes allant jusqu'à 21 jours, pour certaines des souches testées.
Les quantités de pipéronyl butoxyde, et de cyclopyroxolamine utilisées sont identiques et sont de 10 ou 20 µg/ml dans le cas de l'association entre ces deux composés.
Dans le cas de l'association entre le pipéronyl butoxyde et l'éconazole, elles sont respectivement de 10 ou 20 µg/ml de pipéronyl butoxyde et de 1 µg/ml d'éconazole.
Des souches appartenant aux espèces suivantes ont été testées: Microsporum canis, Trichophyton rubrum, Trichophyton interdigitale, Trichophyton mentagrophytes, Microsporum persicolor, Epidermophyton floccosum, Trichophyton violaceum et Trichophyton soudanense.
L'activité du pipéronyl butoxyde seul a été testée à diverses concentrations, comme indiqué dans le tableau 1 sur le milieu de Sabouraud, dépourvu de tout autre fongicide.

## CCCCOCCOCCOCc1cc2c(cc1CCC)OCO2 [Piperonyl., pipéronyl butoxyde]
0 h, J0, 10µg/ml each product
  activity at 10 µg/mL: 0%
96 h, J4, 10µg/ml each product
  activity at 10 µg/mL: 0%
144 h, J6, 10µg/ml each product
  activity at 10 µg/mL: 15%
240 h, J10, 10µg/ml each product
  activity at 10 µg/mL: 35%
336 h, J14, 10µg/ml each product
  activity at 10 µg/mL: 35%
J+4, 2 µg/ml
  inhibition at 2 µg/mL: 25%
J+4, 10 µg/ml
  inhibition at 10 µg/mL: 0%
J+4, 20 µg/ml
  inhibition at 20 µg/mL: 0%
J+4, 50 µg/ml
  inhibition at 50 µg/mL: 0%
J+10, 2 µg/ml
  inhibition at 2 µg/mL: 90%
J+10, 10 µg/ml
  inhibition at 10 µg/mL: 35%
J+10, 20 µg/ml
  inhibition at 20 µg/mL: 15%
J+10, 50 µg/ml
  inhibition at 50 µg/mL: 0%
J+14, 2 µg/ml
  inhibition at 2 µg/mL: 100%
J+14, 10 µg/ml
  inhibition at 10 µg/mL: 35%
J+14, 20 µg/ml
  inhibition at 20 µg/mL: 25%
J+14, 50 µg/ml
  inhibition at 50 µg/mL: 0%
